# Where two headings read alike, the source gives them in different places.
# Key:
# [1] = target: T1, human TRPV1 receptor (hTRPV1) (Homo sapiens (Human), UniProt Q8NER1); experiment: Capsaicin activation assay (FLIPR intracellular Ca2+); type: cell-based
# In short: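 Recombinant HEK293 cells stably expressing hTRPV1, Calcium-4 dye loaded 90–120 min at room temperature, were preincubated with compound (12-point, one-third-log) for 3 min before capsaicin challenge. Peak FLIPR fluorescence minus baseline was normalised to capsaicin control response; IC50 from four-parameter logistic fit.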
# [2] = target: T1, human TRPV1 receptor (hTRPV1); experiment: Acid activation assay (pH 5.0, FLIPR intracellular Ca2+); type: cell-based; conditions: 37.5 μM compound
# T1 sequence (Q8NER1 whole entry): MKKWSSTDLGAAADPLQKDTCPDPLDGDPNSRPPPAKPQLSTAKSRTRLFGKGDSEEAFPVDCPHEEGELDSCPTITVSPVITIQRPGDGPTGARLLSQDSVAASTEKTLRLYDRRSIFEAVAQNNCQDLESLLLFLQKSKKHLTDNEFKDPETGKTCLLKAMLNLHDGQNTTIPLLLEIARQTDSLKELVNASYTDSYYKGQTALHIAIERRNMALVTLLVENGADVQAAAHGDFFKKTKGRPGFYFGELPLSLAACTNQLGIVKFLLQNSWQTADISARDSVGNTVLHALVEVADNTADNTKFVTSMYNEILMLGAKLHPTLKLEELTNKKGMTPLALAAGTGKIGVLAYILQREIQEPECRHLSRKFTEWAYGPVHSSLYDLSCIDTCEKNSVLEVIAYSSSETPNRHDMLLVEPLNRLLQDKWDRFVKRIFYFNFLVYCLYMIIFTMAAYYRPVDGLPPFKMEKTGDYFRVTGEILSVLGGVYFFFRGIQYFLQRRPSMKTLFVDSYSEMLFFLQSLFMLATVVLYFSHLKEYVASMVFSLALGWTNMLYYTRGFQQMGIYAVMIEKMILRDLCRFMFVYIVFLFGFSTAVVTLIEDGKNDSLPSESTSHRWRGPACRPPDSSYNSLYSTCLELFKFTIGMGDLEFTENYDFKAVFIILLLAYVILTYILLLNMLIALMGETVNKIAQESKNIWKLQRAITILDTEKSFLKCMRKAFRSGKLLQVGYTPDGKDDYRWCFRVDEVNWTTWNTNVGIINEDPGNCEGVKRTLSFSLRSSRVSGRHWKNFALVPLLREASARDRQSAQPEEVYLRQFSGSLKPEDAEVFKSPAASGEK
structure (smiles),measurement,setting,value
"CS(=O)(=O)Nc1ccc(CNC(=O)N[C@@H]2CC(CF)(CF)Oc3cc(C(F)(F)F)ccc32)cc1F [Example 10, N-{4-[({[(4R)-2,2-bis(fluoromethyl)-7-(trifluoromethyl)-3,4-dihydro-2H-chromen-4-yl]carbamoyl}amino)methyl]-2-fluorophenyl}methanesulfonamide]",IC50,"[1]; Table 2, capsaicin-induced intracellular Ca2+ increase, read-out: human TRPV1 capsaicin IC50",54 nM
same,IC50,"[1]; inhibition of capsaicin-induced intracellular Ca2+ increase, compounds added 3 minutes prior to capsaicin, read-out: hTRPV1 cap. IC50",54 nM
same,remaining activity at 37.5 µM,"[2]; percentage of the maximal pH 5.0-induced response remaining, read-out: hTRPV1 H+ (max % remain)",72%
same,human TRPV1 H+ (max % remain),"[2]; Table 2, percentage of maximal pH 5.0-induced response",72%

# From patent US8796328B2, “TRPV1 antagonists” (AbbVie Inc., priority 2012, dated 2014)
